Marks after values point to notes of the source that are not given here.
How the values were obtained:
NAFLD patients = experiment: Phase IIa study in NAFLD patients: metabolic, glycemic, lipid and liver parameters; format: in vivo, human
Procedure: The study was planned to include 96 evaluable patients with 32 patients randomized per treatment group.
HOMA-IR/Adipo-IR: HOMA-IR/Adipo-IR levels are a method of measuring insulin resistance. HOMA-IR is calculated by multiplying fasting plasma insulin (FPI) by fasting plasma glucose (FPG), then dividing by the constant 405. Adipo-IR is calculated by multiplying fasting non-esterified fatty acids (NEFA)×fasting insulin. Blood samples were taken to assess HOMA-IR and Adipo-IR at Visit 2/Baseline, Visit 3/Week 2, Visit 4/Week 4, Visit 6/Week 8, Visit 8/Week 12, Visit 10/Week 16 and Follow up Visit 11/Week 20. All subjects were required to have been fasted for a minimum of 8 hours prior to blood sampling. If subjects had not fasted for a minimum of 8 hours, the duration of fasting time was recorded, and subjects encouraged to fast appropriately for the next clinical visit.
Liver stiffness and CAP: Liver stiffness and CAP were assessed using transient elastography (e.g., FibroScan® 502 Touch model or equivalent). Patients were fasted and scanned at the same time of the day, if possible, for baseline (Week 0) and Visit 10 (Week 16). For this assessment the following conditions were met: patients were lying in dorsal decubitus position with the right arm in maximal abduction behind the head, in a similar position to that used for liver biopsy (LB); the tip of the transducer was placed on the skin between the ribs over the right lobe of the liver (the physician took the measurements with the probe placed in the intercostal space); during the FibroScan® examination the choice of M+ or XL+ probe was determined by the Automatic Probe Selection tool (APS) (If, the APS tool advises to use the “XL+ probe” or “switch” continuously between “M+ and XL+ probe”, only the XL+ probe was used); and the operator, assisted by an ultrasonic time motion image, located a portion of the liver which is free of large vascular structures (the depth of measurement was between 35-75 mm for the XL+ probe and 25-65 mm for the M+ probe and the explored volume will be 3 cm^3). For each patient, the operator performed an examination including at least 10 valid measurements or a maximum of 20 attempts, with the XL+ or M+ probe, at the same spot. The entire examination lasted no more than 10-15 minutes. The final stiffness and CAP values was recorded as median values of valid measurements.
Clinical Laboratory Safety Tests: Safety tests were performed for hematology, serum biochemistry, coagulation, lipid profile, and urinalysis: Blood and urine samples were taken as per the Study Flow Chart in Table 19 for routine hematology, serum biochemistry, coagulation and urinalysis tests, along with a Lipid Profile. All samples were analyzed in the central laboratory. All subjects were fasted for a minimum of 8 hours prior to blood sampling. If subjects had not fasted for a minimum of 8 hours, the duration of fasting time was recorded, and subjects encouraged to fast appropriately for the next clinical visit. • Hematology: Full blood count to include red cell count, hemoglobin, hematocrit, white cell count, differential white cell count, platelet count and reticulocyte count. • Serum biochemistry: Urea (blood urea nitrogen; BUN), creatinine, uric acid, total bilirubin, Indirect and Direct Bilirubin, sodium, bicarbonate potassium, phosphorus, calcium chloride, alkaline phosphatase (ALP), aspartate aminotransferase (AST), alanine aminotransferase (ALT), ALT/AST ratio, lactate dehydrogenase (LDH), creatine phosphokinase (CPK), albumin, total protein, cholesterol, triglycerides, glucose, C-reactive protein (CRP). • Coagulation: prothrombin time (PT), international normalized ratio (INR) and activated partial […]. • Lipid Profile: LDL, HDL, and VLDL-C. • Urinalysis: pH, protein, glucose, blood, ketones, leukocytes, leukocyte esterase, bilirubin, specific gravity, urobilinogen and nitrate. […]

Sprague Dawley rats [1] = experiment: 26 week rat toxicity study: coagulation; format: in vivo; conditions: male rats, 26 weeks
Procedure: (§1) The test and control items were administered to the appropriate animals by once daily oral gavage 7 days a week for a minimum of 26 weeks. The volume for each animal was based on the most recent body weight measurements. The doses were given using a syringe with attached gavage cannula. The first day of dosing was designated as Day 1. The dosing formulations were removed from the refrigerator and stirred for at least 30 minutes before dosing. The dosing formulations were also stirred continuously during dosing.
(§2) Sample Collection: Blood was collected via the tail vein unless immediately prior to necropsy, when blood was collected from the orbital sinus under non-recoverable isoflurane anesthesia. Blood was collected in ascending animal order unless samples were collected prior to necropsy where the order of euthanasia was followed. Additional blood samples were obtained (e.g., due to clotting of non-serum samples) if permissible sampling frequency and blood volume were not exceeded. After collection, samples were transferred to the appropriate laboratory for processing. Samples were collected according to the following table.
Coagulation: A 0.5 mL blood sample was collected using the anticoagulant 3.8% (w/v) trisodium citrate for processing to plasma. To assess coagulation the following coagulation parameters were measured.
(§3) Animals: The study used male and female Sprague Dawley rats purchased from Charles River UK Limited (Margate, Kent, UK). The target age at the initial dosing was 7-8 weeks. The target weight at the initial dosing was 175-300 g (males) and 120-250 g (females). Each animal was identified using a subcutaneously implanted electronic cylindrical, “glass-sealed” TROVAN microchip.

[2] = 0.5% HPMC vehicle; same preparation and storage conditions; concentrations bracketing those used; cited from earlier work
Sprague Dawley rats [3] = experiment: 26 week rat toxicity study: hematology; format: in vivo; conditions: male rats, 26 weeks
Procedure: as §1, §2
Hematology: A 0.5 mL blood sample was collected using the anticoagulant K2EDTA. Blood smears were labelled, stained, and stored. The blood smears were analyzed according to the following parameters.
as §3

rats = conditions: 26-week oral, once daily; cited from earlier work
[4] = 6000/3000 mg/kg/day oral gavage

For `CC/C=C\C[C@H](O)/C=C/C=C\C/C=C\C/C=C\CCCC(=O)OCC` [DS102, 15(S)-hydroxy-(5Z,8Z,11Z,13E,17Z)-eicosapentaenoic acid ethyl ester], the “hepatic fat content as assessed by CAP” value (NAFLD patients) was “reduced”, the “insulin sensitivity and glycemic control” value (NAFLD patients; 1 g or 2 g per day, 16 weeks) was “improvement” and the “markers of metabolic overload” value (NAFLD patients; 1 g or 2 g per day, 16 weeks) was “statistically significant reduction”. The “insulin resistance indices (HOMA-IR and adipo-IR levels)” value (NAFLD patients; 1 g or 2 g per day, Week 16) was “improvement”, the “glycemic control (HbA1c levels)” value (NAFLD patients; 1 g or 2 g per day, baseline to Week 16, dose-dependent) was “clinically significant improvements” and the “insulin, glucose, and free fatty acid levels” value (NAFLD patients; 1 g or 2 g per day, baseline to Week 16 vs placebo) was “reduction”. For the same compound, the “alkaline phosphate (ALP)” value (NAFLD patients; 2 g) was “reduced”, the “Triglycerides (median placebo-corrected % change from baseline)” value (NAFLD patients; 2 g, Week 16, Full Analysis Set) was −40.2% and the “insulin resistance indices (HOMA-IR and adipo-IR levels)” value (NAFLD patients; 2 g, Week 16, Per Protocol Set (PPS)) was “significant improvements”. For the same compound, the “Triglycerides (median placebo-corrected % change from baseline)” value (NAFLD patients; 2 g, Week 16, Subgroup: High Triglycerides (>200 mg/dL)) was −20.4%, the “Triglycerides (median placebo-corrected % change from baseline)” value (NAFLD patients; 2 g, Week 16, Subgroup: Triglycerides > Upper Limit Normal (>150 mg/dL)) was −39.0% and the “lipid profile (total cholesterol, VLDL-C, non-HDL-C, RLP cholesterol, triglyceride levels)” value (NAFLD patients; Week 16, safety analysis set (SAS)) was “significantly improved”. For the same compound, the “Activated Partial Thromboplastin Time (APTT), Mean” value (Sprague Dawley rats [1]; 2000 mg/kg/day oral gavage) was 15.03* sec, the “Fibrinogen (FIB), Mean” value (Sprague Dawley rats [1]; 2000 mg/kg/day oral gavage) was 2.35** g/L and the “Prothrombin Time (PT), Mean” value (Sprague Dawley rats [1]; 2000 mg/kg/day oral gavage) was 10.69** sec. For the same compound, the “Activated Partial Thromboplastin Time (APTT), Mean” value (Sprague Dawley rats [1]; [4]) was 15.73** sec, the “Fibrinogen (FIB), Mean” value (Sprague Dawley rats [1]; [4]) was 2.26** g/L and the “Prothrombin Time (PT), Mean” value (Sprague Dawley rats [1]; [4]) was 10.81** sec. For the same compound, the “stability of the test item in the vehicle” value [2] was “stable”, the “Red Cell Distribution Width (RDW), Mean” value (Sprague Dawley rats [3]; 2000 mg/kg/day oral gavage) was 13.91** % and the “Red blood cell count (RBC), Mean” value (Sprague Dawley rats [3]; 2000 mg/kg/day oral gavage) was 8.67 10^12/L. For the same compound, the “Reticulocyte count (RETIC), Mean” value (Sprague Dawley rats [3]; 2000 mg/kg/day oral gavage) was 1.546e+11 L⁻¹, the “Red Cell Distribution Width (RDW), Mean” value (Sprague Dawley rats [3]; [4]) was 13.60** % and the “Red blood cell count (RBC), Mean” value (Sprague Dawley rats [3]; [4]) was 8.81** 10^12/L. The “Reticulocyte count (RETIC), Mean” value (Sprague Dawley rats [3]; [4]) was 141.46** 10^9/L and the “highest dose tested, showing no adverse effects” value (rats) was 1 mg/kg/day.

— US20240299328A1, “COMPOSITIONS COMPRISING 15-HEPE AND METHODS OF TREATING AND/OR PREVENTING HEMATOLOGIC DISORDERS AND RELATED DISEASES” (Afimmune Limited, priority 2023, published 2024)
